Our source for the DC50 values is US12570671B2 (BRISTOL-MYERS SQUIBB COMPANY, priority 2020, dated 2026).

For one assay, the target named is Helios (Homo sapiens, UniProt Q96SW2+Q9UKS7). Kind of assay: Helios Cellular Degradation Assay (Helios readout). The assay is classed as cell-based. On the set-up: endogenous in cells; host or cells: Jurkat. As to conditions: Jurkat cells, 72 h incubation, Helios-PE antibody staining, flow cytometry; read-out: Helios Jurkat IC50. An outline of the steps: (§1)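 Jurkat cells (80,000/well, RPMI+10% FBS) were treated with compound for 72 h at 37° C. After fixation and permeabilization they were stained with fluorescent antibodies to Helios, Ikaros and Aiolos. Intracellular protein levels were quantified by flow cytometry.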
On the technique in general: A flow cytometer gives signals particle by particle.

A further assay addresses Ikaros (Homo sapiens, UniProt Q13422+Q96SW2). As to the kind of experiment: Helios Cellular Degradation Assay (Ikaros readout). The assay is classed as cell-based. Also noted: endogenous in cells; host or cells: Jurkat. As to conditions: Jurkat cells, 72 h incubation, Ikaros-Alexa488 antibody staining, flow cytometry; read-out: Ikaros Jurkat IC50. An outline of the steps:
as §1

Some results are limits rather than exact numbers.

Chain of Helios (Q9UKS7 whole entry): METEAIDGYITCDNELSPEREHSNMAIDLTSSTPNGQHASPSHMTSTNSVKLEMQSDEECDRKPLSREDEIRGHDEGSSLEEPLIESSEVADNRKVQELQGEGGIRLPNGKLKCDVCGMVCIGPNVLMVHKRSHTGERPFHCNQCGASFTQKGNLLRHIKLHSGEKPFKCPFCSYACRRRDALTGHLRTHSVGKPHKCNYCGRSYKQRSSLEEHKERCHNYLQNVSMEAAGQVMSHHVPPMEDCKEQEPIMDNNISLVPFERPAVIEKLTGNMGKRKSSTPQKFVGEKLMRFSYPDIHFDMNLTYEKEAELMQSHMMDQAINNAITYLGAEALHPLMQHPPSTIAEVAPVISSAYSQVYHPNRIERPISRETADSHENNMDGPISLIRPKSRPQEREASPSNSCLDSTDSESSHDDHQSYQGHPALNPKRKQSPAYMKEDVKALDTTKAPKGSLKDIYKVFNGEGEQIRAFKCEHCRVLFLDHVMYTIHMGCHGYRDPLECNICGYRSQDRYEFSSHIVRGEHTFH
Chain of Helios (Q96SW2 whole entry): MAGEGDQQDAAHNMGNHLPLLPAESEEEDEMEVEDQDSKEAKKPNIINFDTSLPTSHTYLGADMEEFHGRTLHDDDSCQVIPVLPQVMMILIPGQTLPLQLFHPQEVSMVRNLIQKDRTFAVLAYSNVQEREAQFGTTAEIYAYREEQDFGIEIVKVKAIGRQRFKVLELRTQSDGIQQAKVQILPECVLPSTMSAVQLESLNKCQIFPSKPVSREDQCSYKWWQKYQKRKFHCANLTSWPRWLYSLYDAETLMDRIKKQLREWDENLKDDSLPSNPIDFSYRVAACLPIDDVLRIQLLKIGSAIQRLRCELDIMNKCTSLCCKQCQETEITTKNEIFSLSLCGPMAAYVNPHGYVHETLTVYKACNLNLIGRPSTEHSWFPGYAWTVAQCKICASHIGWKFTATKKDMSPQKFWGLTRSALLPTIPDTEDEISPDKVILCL
Chain of Helios (Q16531 whole entry partner): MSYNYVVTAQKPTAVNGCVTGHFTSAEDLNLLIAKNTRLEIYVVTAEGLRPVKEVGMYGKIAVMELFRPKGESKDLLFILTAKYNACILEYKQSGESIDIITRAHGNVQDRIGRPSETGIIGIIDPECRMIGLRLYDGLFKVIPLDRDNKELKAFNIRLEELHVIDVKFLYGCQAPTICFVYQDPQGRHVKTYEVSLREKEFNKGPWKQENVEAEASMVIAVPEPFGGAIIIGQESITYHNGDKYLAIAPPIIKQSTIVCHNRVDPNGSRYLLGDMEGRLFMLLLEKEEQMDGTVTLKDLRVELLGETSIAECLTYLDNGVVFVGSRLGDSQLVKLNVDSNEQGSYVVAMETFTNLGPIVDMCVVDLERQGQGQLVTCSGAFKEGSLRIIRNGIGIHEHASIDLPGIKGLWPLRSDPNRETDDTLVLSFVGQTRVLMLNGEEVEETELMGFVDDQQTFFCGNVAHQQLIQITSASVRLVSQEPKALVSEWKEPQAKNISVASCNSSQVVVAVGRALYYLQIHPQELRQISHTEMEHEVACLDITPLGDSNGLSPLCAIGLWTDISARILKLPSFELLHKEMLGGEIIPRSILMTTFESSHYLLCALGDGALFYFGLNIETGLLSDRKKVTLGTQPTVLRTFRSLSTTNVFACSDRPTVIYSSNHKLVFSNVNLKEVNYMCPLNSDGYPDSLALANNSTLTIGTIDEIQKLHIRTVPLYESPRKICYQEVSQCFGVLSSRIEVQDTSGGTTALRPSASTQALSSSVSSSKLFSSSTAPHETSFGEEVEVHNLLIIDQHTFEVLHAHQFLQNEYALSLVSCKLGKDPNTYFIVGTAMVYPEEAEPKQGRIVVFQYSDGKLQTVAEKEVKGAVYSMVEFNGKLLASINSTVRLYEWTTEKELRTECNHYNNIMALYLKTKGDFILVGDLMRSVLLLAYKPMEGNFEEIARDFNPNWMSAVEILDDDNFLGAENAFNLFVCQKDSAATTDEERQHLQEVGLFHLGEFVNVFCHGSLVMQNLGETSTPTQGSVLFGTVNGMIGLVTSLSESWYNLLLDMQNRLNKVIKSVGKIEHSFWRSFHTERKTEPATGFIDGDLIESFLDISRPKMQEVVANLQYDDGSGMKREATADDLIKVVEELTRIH
Chain of Ikaros (Q13422 whole entry): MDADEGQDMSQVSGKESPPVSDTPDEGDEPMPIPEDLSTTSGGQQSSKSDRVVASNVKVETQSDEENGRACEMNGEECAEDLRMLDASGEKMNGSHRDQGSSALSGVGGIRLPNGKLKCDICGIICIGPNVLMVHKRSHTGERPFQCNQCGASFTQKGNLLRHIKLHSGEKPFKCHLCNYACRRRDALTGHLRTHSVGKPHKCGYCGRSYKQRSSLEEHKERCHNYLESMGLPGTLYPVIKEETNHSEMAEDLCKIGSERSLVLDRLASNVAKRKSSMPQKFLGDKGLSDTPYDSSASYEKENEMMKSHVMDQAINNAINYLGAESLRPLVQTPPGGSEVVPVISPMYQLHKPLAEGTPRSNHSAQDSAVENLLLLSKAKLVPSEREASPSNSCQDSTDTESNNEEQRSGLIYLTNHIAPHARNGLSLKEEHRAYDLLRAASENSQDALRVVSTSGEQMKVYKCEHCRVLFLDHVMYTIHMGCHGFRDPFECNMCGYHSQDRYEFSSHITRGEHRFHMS
Chain of Ikaros (Q96SW2 whole entry): as the sequence (Q96SW2 whole entry) above
Chain of Ikaros (Q16531 whole entry partner): as the sequence (Q16531 whole entry partner) above

As to `CCOc1c(-c2ccc3c(c2)CN(C2CCC(=O)NC2=O)C3=O)ncc2ccccc12` (stereo not drawn) [Example 85, 3-(5-(4-ethoxyisoquinolin-3-yl)-1-oxoisoindolin-2-yl)piperidine-2,6-dione], the figures for the DC50 at Helios and at Ikaros were 10 nM and 1820 nM, respectively.

Take `CCOc1c(-c2ccc3c(c2)CN(C2CCC(=O)NC2=O)C3=O)nc(Cl)c2ccccc12` (stereo not drawn) [Example 86, 3-(5-(1-chloro-4-ethoxyisoquinolin-3-yl)-1-oxoisoindolin-2-yl)piperidine-2,6-dione]: the DC50 was determined as 50 nM at Helios and 190 nM at Ikaros.

On to `O=C1CCC(N2Cc3cc(-c4cc5c(cn4)OCCN5)ccc3C2=O)C(=O)N1` (stereo not drawn) [Example 87, 3-(5-(2,3-dihydro-1H-pyrido[3,4-b][1,4]oxazin-7-yl)-1-oxoisoindolin-2-yl)piperidine-2,6-dione], for which the values for the DC50 at Helios and at Ikaros were 100 nM and ≥ 20000 nM, respectively.

In the case of `Cc1nc(-c2ccc3c(c2)CN(C2CCC(=O)NC2=O)C3=O)cc2ccccc12` (stereo not drawn) [Example 88, 3-(5-(1-methylisoquinolin-3-yl)-1-oxoisoindolin-2-yl)piperidine-2,6-dione], the results for the DC50 on Helios and at Ikaros were 20 nM and ≥ 20000 nM, respectively.

On to `O=C1CCC(N2Cc3cc(-c4cc5ccccc5c(C5CC5)n4)ccc3C2=O)C(=O)N1` (stereo not drawn) [Example 89, 3-(5-(1-cyclopropylisoquinolin-3-yl)-1-oxoisoindolin-2-yl)piperidine-2,6-dione], for which the DC50 at Helios is 2200 nM; on Ikaros, ≥ 20000 nM.

With `N#Cc1cnc(-c2ccc3c(c2)CN(C2CCC(=O)NC2=O)C3=O)c2ccccc12` (stereo not drawn) [Example 90, -(2-(2,6-dioxopiperidin-3-yl)-1-oxoisoindolin-5-yl)isoquinoline-4-carbonitrile], the DC50 at Helios was determined as 20 nM; at Ikaros it was 410 nM.

As for `O=C1CCC(N2Cc3cc(-c4ncnc5ccccc45)ccc3C2=O)C(=O)N1` (stereo not drawn) [Example 91, 3-(1-oxo-5-(quinazolin-4-yl)isoindolin-2-yl)piperidine-2,6-dione], the DC50 on Helios is 210 nM; at Ikaros, ≥ 20000 nM.

As for `CN1CCc2nc(-c3ccc4c(c3)CN(C3CCC(=O)NC3=O)C4=O)ccc2C1=O` (stereo not drawn) [Example 92, 3-(5-(6-methyl-5-oxo-5,6,7,8-tetrahydro-1,6-naphthyridin-2-yl)-1-oxoisoindolin-2-yl)piperidine-2,6-dione], the DC50 at Helios is 1500 nM; on Ikaros, ≥ 20000 nM.

For the compound `O=C1CCC(N2Cc3cc(-c4nc5ccccc5nc4Cl)ccc3C2=O)C(=O)N1` (stereo not drawn) [Example 93, 3-(5-(3-chloroquinoxalin-2-yl)-1-oxoisoindolin-2-yl)piperidine-2,6-dione], the figures for the DC50 at Helios and at Ikaros were 17100 nM and ≥ 20000 nM, respectively.

Turning to `COc1nc2ccccc2nc1-c1ccc2c(c1)CN(C1CCC(=O)NC1=O)C2=O` (stereo not drawn) [Example 94, 3-(5-(3-methoxyquinoxalin-2-yl)-1-oxoisoindolin-2-yl)piperidine-2,6-dione], the DC50 at Helios was 1070 nM; at Ikaros, ≥ 20000 nM.

Consider `CCNc1nc2ccccc2nc1-c1ccc2c(c1)CN(C1CCC(=O)NC1=O)C2=O` (stereo not drawn) [Example 95, 3-(5-(3-(ethylamino)quinoxalin-2-yl)-1-oxoisoindolin-2-yl)piperidine-2,6-dione], for which the figures for the DC50 at Helios and at Ikaros were 110 nM and 310 nM, respectively.

`O=C1CCC(N2Cc3cc(-c4nc5ccccc5nc4O)ccc3C2=O)C(=O)N1` (stereo not drawn) [Example 96, 3-(5-(3-hydroxyquinoxalin-2-yl)-1-oxoisoindolin-2-yl)piperidine-2,6-dione]: the DC50 is 200 nM on Helios and ≥ 20000 nM at Ikaros.

For the compound `CC(C)c1nc2ccccc2nc1-c1ccc2c(c1)CN(C1CCC(=O)NC1=O)C2=O` (stereo not drawn) [Example 98, 3-(5-(3-isopropylquinoxalin-2-yl)-1-oxoisoindolin-2-yl)piperidine-2,6-dione], the results for the DC50 on Helios and on Ikaros were 860 nM and ≥ 20000 nM, respectively.

`O=C1CCC(N2Cc3cc(-c4nc5ccccc5nc4-c4ccccc4)ccc3C2=O)C(=O)N1` (stereo not drawn) [Example 99, 3-(1-oxo-5-(3-phenylquinoxalin-2-yl)isoindolin-2-yl)piperidine-2,6-dione]: the DC50 on Helios was 340 nM; on Ikaros, ≥ 20000 nM.

As to `O=C1CCC(N2Cc3cc(-c4nccc5ncccc45)ccc3C2=O)C(=O)N1` (stereo not drawn) [Example 100, 3-(5-(1,6-naphthyridin-5-yl)-1-oxoisoindolin-2-yl)piperidine-2,6-dione], the DC50 was 210 nM on Helios and ≥ 20000 nM on Ikaros.

Regarding `Nc1ccc(Br)c(-c2ccc3c(c2)CN(C2CCC(=O)NC2=O)C3=O)n1` (stereo not drawn) [Example 101, 3-(5-(6-amino-3-bromopyridin-2-yl)-1-oxoisoindolin-2-yl)piperidine-2,6-dione], the DC50 at Helios was 470 nM; on Ikaros, ≥ 20000 nM.

For `Nc1ccc2cnc(-c3ccc4c(c3)CN(C3CCC(=O)NC3=O)C4=O)cc2c1` (stereo not drawn) [Example 102, 3-(5-(6-aminoisoquinolin-3-yl)-1-oxoisoindolin-2-yl)piperidine-2,6-dione], the DC50 on Helios is 2 nM; at Ikaros, ≥ 20000 nM.

Take `COc1cnc(-c2ccc3c(c2)CN(C2CCC(=O)NC2=O)C3=O)c2ccccc12` (stereo not drawn) [Example 103, 3-(5-(4-methoxyisoquinolin-1-yl)-1-oxoisoindolin-2-yl)piperidine-2,6-dione]: the DC50 at Helios was 10 nM; at Ikaros, ≥ 20000 nM.

As for `COc1cccnc1-c1ccc2c(c1)CN(C1CCC(=O)NC1=O)C2=O` (stereo not drawn) [Example 104, 3-(5-(3-methoxypyridin-2-yl)-1-oxoisoindolin-2-yl)piperidine-2,6-dione], the DC50 at Helios is 130 nM; on Ikaros, ≥ 20000 nM.

Take `O=C1CCC(N2Cc3cc(-c4ncc(OCc5ccccc5)c5ccccc45)ccc3C2=O)C(=O)N1` (stereo not drawn) [Example 105, 3-(5-(4-(benzyloxy)isoquinolin-1-yl)-1-oxoisoindolin-2-yl)piperidine-2,6-dione]: the DC50 on Helios was 140 nM; at Ikaros it was ≥ 20000 nM.

Regarding `COc1ccc(N)nc1-c1ccc2c(c1)CN(C1CCC(=O)NC1=O)C2=O` (stereo not drawn) [Example 106, 3-(5-(6-amino-3-methoxypyridin-2-yl)-1-oxoisoindolin-2-yl)piperidine-2,6-dione], the DC50 is 20 nM on Helios and ≥ 20000 nM at Ikaros.

For the compound `O=C1CCC(N2Cc3cc(-c4ncccc4CO)ccc3C2=O)C(=O)N1` (stereo not drawn) [Example 107, 3-(5-(3-(hydroxymethyl)pyridin-2-yl)-1-oxoisoindolin-2-yl)piperidine-2,6-dione], the results for the DC50 at Helios and on Ikaros were 1130 nM and ≥ 10000 nM, respectively.

Regarding `O=C1CCC(N2Cc3cc(-c4cc(CO)ccn4)ccc3C2=O)C(=O)N1` (stereo not drawn) [Example 108, 3-(5-(4-(hydroxymethyl)pyridin-2-yl)-1-oxoisoindolin-2-yl)piperidine-2,6-dione], the values for the DC50 at Helios and on Ikaros were 830 nM and ≥ 10000 nM, respectively.

With `O=C1CCC(N2Cc3cc(-c4ccccn4)ccc3C2=O)C(=O)N1` (stereo not drawn) [Example 109, 3-(1-oxo-5-(pyridin-2-yl)isoindolin-2-yl) piperidine-2,6-dione], the DC50 is 610 nM on Helios and ≥ 10000 nM on Ikaros.

Take `N#Cc1ccnc(-c2ccc3c(c2)CN(C2CCC(=O)NC2=O)C3=O)c1` (stereo not drawn) [Example 110, 2-(2-(2,6-dioxopiperidin-3-yl)-1-oxoisoindolin-5-yl) isonicotinonitrile]: the DC50 at Helios is 880 nM; on Ikaros, ≥ 10000 nM.

As to `N#CCc1ccnc(-c2ccc3c(c2)CN(C2CCC(=O)NC2=O)C3=O)c1` (stereo not drawn) [Example 111, 2-(2-(2-(2,6-dioxopiperidin-3-yl)-1-oxoisoindolin-5-yl)pyridin-4-yl)acetonitrile], the DC50 was 930 nM at Helios and ≥ 10000 nM on Ikaros.

On to `Nc1cc(CO)cc(-c2ccc3c(c2)CN(C2CCC(=O)NC2=O)C3=O)n1` (stereo not drawn) [Example 112, 3-(5-(6-amino-4-(hydroxymethyl)pyridin-2-yl)-1-oxoisoindolin-2-yl)piperidine-2,6-dione], for which the DC50 on Helios is 420 nM; at Ikaros, ≥ 10000 nM.

As for `O=C1CCC(N2Cc3cc(-c4cc5c(cn4)NCC5)ccc3C2=O)C(=O)N1` (stereo not drawn) [Example 113, 3-(5-(2,3-dihydro-1H-pyrrolo[2,3-c]pyridin-5-yl)-1-oxoisoindolin-2-yl)piperidine-2,6-dione], the figures for the DC50 at Helios and at Ikaros were 50 nM and ≥ 10000 nM, respectively.

As for `O=C1CCC(N2Cc3cc(-c4ccc5c(n4)NC(=O)C5)ccc3C2=O)C(=O)N1` (stereo not drawn) [Example 114, 3-(1-oxo-5-(2-oxo-2,3-dihydro-1H-pyrrolo[2,3-b]pyridin-6-yl)isoindolin-2-yl)piperidine-2,6-dione], the results for the DC50 on Helios and at Ikaros were 1120 nM and ≥ 10000 nM, respectively.

Consider `O=C1CCC(N2Cc3cc(-c4cc5c(cn4)CCCC5)ccc3C2=O)C(=O)N1` (stereo not drawn) [Example 115, 3-(1-oxo-5-(5,6,7,8-tetrahydroisoquinolin-3-yl)isoindolin-2-yl)piperidine-2,6-dione], for which the DC50 at Helios worked out at 100 nM; at Ikaros, 160 nM.

For `Cc1ccc(-c2ccc3c(c2)CN(C2CCC(=O)NC2=O)C3=O)nc1N` (stereo not drawn) [Example 116, 3-(5-(6-amino-5-methylpyridin-2-yl)-1-oxoisoindolin-2-yl)piperidine-2,6-dione], the DC50 was 170 nM at Helios and ≥ 10000 nM on Ikaros.

Regarding `Nc1ccc(-c2ccc3c(c2)CN(C2CCC(=O)NC2=O)C3=O)nc1N` (stereo not drawn) [Example 117, 3-(5-(5,6-diaminopyridin-2-yl)-1-oxoisoindolin-2-yl)piperidine-2,6-dione], the DC50 on Helios was 150 nM; at Ikaros it was ≥ 10000 nM.

For the compound `O=C1CCC(N2Cc3cc(-c4ccc5c(n4)NCCN5)ccc3C2=O)C(=O)N1` (stereo not drawn) [Example 118, 3-(1-oxo-5-(1,2,3,4-tetrahydropyrido[2,3-b]pyrazin-6-yl)isoindolin-2-yl)piperidine-2,6-dione], the DC50 on Helios is 180 nM; on Ikaros it was ≥ 10000 nM.
